From ChEMBL document CHEMBL3763038, “Design and synthesis of a new generation of substituted purine hydroxamate analogs as histone deacetylase inhibitors” (Bioorg Med Chem, 2016)

Key:
[1] = target: Histone deacetylase (HDAC1 and HDAC2) (Homo sapiens, UniProt Q13547+Q92769); assay: Inhibition of HDAC1/2 in human HeLa cell nuclear extract using color de Lys as substrate preincubated for 5 mins followed by substrate addition measured after 30 min by microtiter plate reader analysis; format: cell-based
Histone deacetylase 8 = target: T1, Histone deacetylase 8 (Homo sapiens, UniProt Q9BY41); assay: Inhibition of C-terminal His-tagged human recombinant HDAC8 expressed in Sf9 cells after 30 mins by microtiter plate reader analysis
T1 sequence (Q9BY41 whole entry): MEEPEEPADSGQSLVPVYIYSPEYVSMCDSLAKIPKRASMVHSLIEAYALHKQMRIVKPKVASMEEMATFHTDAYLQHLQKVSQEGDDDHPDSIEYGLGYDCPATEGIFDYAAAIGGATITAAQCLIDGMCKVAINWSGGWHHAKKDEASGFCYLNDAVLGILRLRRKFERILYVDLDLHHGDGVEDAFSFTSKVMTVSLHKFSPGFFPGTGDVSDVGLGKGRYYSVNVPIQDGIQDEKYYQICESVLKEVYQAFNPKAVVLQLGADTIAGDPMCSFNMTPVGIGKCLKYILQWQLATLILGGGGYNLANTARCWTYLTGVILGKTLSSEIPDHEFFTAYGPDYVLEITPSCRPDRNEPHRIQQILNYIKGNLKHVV

MDA-MB-231 = assay: Antiproliferative activity against human MDA-MB-231 cells after 48 hrs by MTT assay; format: functional, cell-based; details: MDA-MB-231, 48 h
[2] = Antiproliferative activity against human KG1 cells after 48 hrs by MTT assay; format: functional, cell-based; details: KG-1, 48 h
[3] = Antiproliferative activity against human PC3 cells after 48 hrs by MTT assay; format: functional, cell-based; details: PC-3, 48 h
Histone deacetylase 2 = Histone deacetylase 2 (Homo sapiens, UniProt Q92769); assay: Inhibition of C-terminal GST-tagged human recombinant HDAC2 expressed in Sf9 cells after 30 mins by microtiter plate reader analysis; format: cell-based
Chain of Histone deacetylase 2 (Q92769 whole entry): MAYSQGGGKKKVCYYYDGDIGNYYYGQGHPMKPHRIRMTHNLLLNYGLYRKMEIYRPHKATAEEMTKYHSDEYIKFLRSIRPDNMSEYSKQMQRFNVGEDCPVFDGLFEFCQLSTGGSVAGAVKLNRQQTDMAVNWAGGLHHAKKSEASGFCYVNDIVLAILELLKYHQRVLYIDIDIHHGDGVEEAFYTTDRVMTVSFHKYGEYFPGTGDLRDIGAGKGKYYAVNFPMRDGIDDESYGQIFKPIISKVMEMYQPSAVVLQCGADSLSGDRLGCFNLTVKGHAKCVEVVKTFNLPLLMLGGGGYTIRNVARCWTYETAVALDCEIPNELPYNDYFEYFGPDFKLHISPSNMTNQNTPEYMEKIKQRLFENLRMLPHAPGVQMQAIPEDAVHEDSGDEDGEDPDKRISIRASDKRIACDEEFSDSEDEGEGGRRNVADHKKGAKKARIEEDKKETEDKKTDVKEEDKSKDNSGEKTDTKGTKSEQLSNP

SMILES | IC50 [1] | IC50 (Histone deacetylase 8) | IC50 (MDA-MB-231) | IC50 (Histone deacetylase 2) | IC50 [2] | IC50 [3]
O=C(CCCCCCNc1nc(N2CCOCC2)nc2[nH]cnc12)NO | 157 nM | – | – | – | – | –
CCCCn1cnc2c(NCCCCCC(=O)NO)nc(N3CCOCC3)nc21 | 130 nM | – | – | – | – | –
CC(C)n1cnc2c(NCCCCCCC(=O)NO)nc(N)nc21 | – | 3130 nM | 3300 nM | – | 3430 nM | 6860 nM

Second part, led by results:

IC50 [1] | IC50 (Histone deacetylase 8) | IC50 (MDA-MB-231) | IC50 (Histone deacetylase 2) | SMILES | IC50 [2] | IC50 [3]
26 nM | 1440 nM | 1120 nM | 56 nM | O=C(CCCCCNc1nc(Cl)nc2c1ncn2Cc1ccccc1)NO | 320 nM | 2830 nM
27 nM | 2010 nM | 1650 nM | 165 nM | CC(C)Cn1cnc2c(NCCCCCCC(=O)NO)nc(Cl)nc21 | 860 nM | 1380 nM
